Values after ≈ are worked out from the molar mass of the structure shown.
Key:
Test in all cases: in vitro antibacterial activity (MIC), agar dilution
Format in all cases: cell-based
Candida albicans CCH 442 = conditions: organism code TT; BHI agar, 35-37° C., 20 to 24 hours; unit assumed
Experimental: (§1) Representative compounds of the present invention were assayed in vitro for antibacterial activity as follows: Twelve petri dishes containing successive aqueous dilutions of the test compound mixed with 10 mL of sterilized Brain Heart Infusion (BHI) agar (Difco 0418-01-5) were prepared. Each plate was inoculated with 1:100 (or 1:10 for slow-growing strains, such as Micrococcus and Streptococcus) dilutions of up to 32 different microorganisms, using a Steers replicator block. […] In addition, a control plate, using BHI agar containing no test compound, was prepared and incubated at the beginning and end of each test.
(§2) An additional plate containing a compound having known susceptibility patterns for the organisms being tested and belonging to the same antibiotic class as the test compound was also prepared and incubated as a further control, as well as to provide test-to-test comparability.
(§3) After incubation, each plate was visually inspected. The minimum inhibitory concentration (MIC) was defined as the lowest concentration of drug yielding no growth, a slight haze, or sparsely isolated colonies on the inoculum spot as compared to the growth control.

[1] = system: Streptococcus Pneumonia GYR 1171; conditions: organism code YY; BHI agar, 35-37° C., 20 to 24 hours; unit assumed
Experimental: as §1, §2, §3

[2] = system: Streptococcus pyogenes EES61; conditions: organism code LL; BHI agar, 35-37° C., 20 to 24 hours; unit assumed
Experimental: as §1, §2, §3

[3] = system: Staphylococcus aureus A-5278; conditions: organism code CC; BHI agar, 35-37° C., 20 to 24 hours; unit assumed
Experimental: as §1, §2, §3

[4] = system: Micrococcus luteus ATCC 4698; conditions: organism code PP; BHI agar, 35-37° C., 20 to 24 hours; unit assumed
Experimental: as §1, §2, §3

[5] = system: Staphylococcus aureus CMX 642A; conditions: organism code DD; BHI agar, 35-37° C., 20 to 24 hours; unit assumed
Experimental: as §1, §2, §3

[6] = system: Micrococcus luteus ATCC 9341; conditions: organism code OO; BHI agar, 35-37° C., 20 to 24 hours; unit assumed
Experimental: as §1, §2, §3

[7] = system: Staphylococcus aureus 1775; conditions: organism code GG; BHI agar, 35-37° C., 20 to 24 hours; unit assumed
Experimental: as §1, §2, §3

[8] = system: Streptococcus pyogenes PIU 2548; conditions: organism code NN; BHI agar, 35-37° C., 20 to 24 hours; unit assumed
Experimental: as §1, §2, §3

[9] = system: Staphylococcus aureus ATCC 6538P; conditions: organism code AA; BHI agar, 35-37° C., 20 to 24 hours; unit assumed
Experimental: as §1, §2, §3

[10] = system: Streptococcus agalactiae CMX 508; conditions: organism code KK; BHI agar, 35-37° C., 20 to 24 hours; unit assumed
Experimental: as §1, §2, §3

[11] = system: Streptococcus Pneumonia 5649; conditions: organism code ZZA; BHI agar, 35-37° C., 20 to 24 hours; unit assumed
Experimental: as §1, §2, §3

[12] = system: Mycobacterium smegmatis ATCC 114; conditions: organism code UU; BHI agar, 35-37° C., 20 to 24 hours; unit assumed
Experimental: as §1, §2, §3

[13] = system: Streptococcus bovis A-5169; conditions: organism code JJ; BHI agar, 35-37° C., 20 to 24 hours; unit assumed
Experimental: as §1, §2, §3

[14] = system: Staphylococcus epidermidis 3519; conditions: organism code HH; BHI agar, 35-37° C., 20 to 24 hours; unit assumed
Experimental: as §1, §2, §3

[15] = system: Streptococcus pyogenes 930; conditions: organism code MM; BHI agar, 35-37° C., 20 to 24 hours; unit assumed
Experimental: as §1, §2, §3

Escherichia coli JUHL = conditions: organism code QQ; BHI agar, 35-37° C., 20 to 24 hours; unit assumed
Experimental: as §1, §2, §3

[16] = system: Haemophilis Influenzae DILL AMP R; conditions: organism code WW; BHI agar, 35-37° C., 20 to 24 hours; unit assumed
Experimental: as §1, §2, §3

[17] = system: Staphylococcus aureus NCTC10649M; conditions: organism code EE; BHI agar, 35-37° C., 20 to 24 hours; unit assumed
Experimental: as §1, §2, §3

[18] = system: Streptococcus Pneumonia 5979; conditions: organism code ZZ; BHI agar, 35-37° C., 20 to 24 hours; unit assumed
Experimental: as §1, §2, §3

[19] = system: Nocardia Asteroides ATCC9970; conditions: organism code VV; BHI agar, 35-37° C., 20 to 24 hours; unit assumed
Experimental: as §1, §2, §3

[20] = system: Streptococcus Pneumonia ATCC6303; conditions: organism code XX; BHI agar, 35-37° C., 20 to 24 hours; unit assumed
Experimental: as §1, §2, §3

Escherichia coli SS = conditions: organism code RR; BHI agar, 35-37° C., 20 to 24 hours; unit assumed
Experimental: as §1, §2, §3

[21] = system: Staphylococcus aureus CMX 553; conditions: organism code FF; BHI agar, 35-37° C., 20 to 24 hours; unit assumed
Experimental: as §1, §2, §3

[22] = system: Staphylococcus aureus A5177; conditions: organism code BB; BHI agar, 35-37° C., 20 to 24 hours; unit assumed
Experimental: as §1, §2, §3

Escherichia coli DC-2 = conditions: organism code SS; BHI agar, 35-37° C., 20 to 24 hours; unit assumed
Experimental: as §1, §2, §3

[23] = system: Enterococcus faecium ATCC 8043; conditions: organism code II; BHI agar, 35-37° C., 20 to 24 hours; unit assumed
Experimental: as §1, §2, §3

| SMILES | MIC (Candida albicans CCH 442) [µg/mL] | MIC [1] [µg/mL] | MIC [2] [µg/mL] | MIC [3] [µg/mL] | MIC [4] [µg/mL] | MIC [5] [µg/mL] | MIC [6] [µg/mL] | MIC [7] [µg/mL] | MIC [8] [µg/mL] | MIC [9] [µg/mL] | MIC [10] [µg/mL] | MIC [12] [µg/mL] | MIC [13] [µg/mL] | MIC [14] [µg/mL] | MIC [15] [µg/mL] | MIC (Escherichia coli JUHL) [µg/mL] | MIC [16] [µg/mL] | MIC [17] [µg/mL] | MIC [18] [µg/mL] | MIC [19] [µg/mL] | other results |
| --- | --- | --- | --- | --- | --- | --- | --- | --- | --- | --- | --- | --- | --- | --- | --- | --- | --- | --- | --- | --- | --- |
| CC[C@H]1OC(=O)[C@H](C)C(=O)[C@H](C)[C@@H](O[C@@H]2O[C@H](C)C[C@H](N(C)C)[C@H]2O)[C@](C)(OCC#Cc2ccc(-c3cccc(OC)c3)s2)C[C@@H](C)C(=O)[C@H](C)[C@H]2NC(=O)O[C@@]21C [Example 14] | > 100 | 0.03 (≈ 0.0364 µM) | 0.01 (≈ 0.0121 µM) | > 100 | 0.02 (≈ 0.0242 µM) | 0.1 (≈ 0.121 µM) | 0.01 (≈ 0.0121 µM) | 50 (≈ 60.6 µM) | 0.1 (≈ 0.121 µM) | 0.1 (≈ 0.121 µM) | 0.01 (≈ 0.0121 µM) | 0.2 (≈ 0.242 µM) | ≤ 0.005 | 0.1 (≈ 0.121 µM) | 1.56 (≈ 1.89 µM) | > 100 | 2 (≈ 2.42 µM) | 0.1 (≈ 0.121 µM) | 1 (≈ 1.21 µM) | 0.1 (≈ 0.121 µM) | MIC [11]: 0.25 µg/mL (≈ 0.303 µM); MIC [20]: 0.03 µg/mL (≈ 0.0364 µM); MIC (Escherichia coli SS): 0.39 µg/mL (≈ 0.473 µM); MIC [21]: 0.1 µg/mL (≈ 0.121 µM); MIC [22]: 0.1 µg/mL (≈ 0.121 µM); MIC (Escherichia coli DC-2): > 100 µg/mL |
| CC[C@H]1OC(=O)[C@H](C)C(=O)[C@H](C)[C@@H](O[C@@H]2O[C@H](C)C[C@H](N(C)C)[C@H]2O)[C@](C)(OC/C=C/c2cncc(-c3cnc4ccccc4c3)c2)C[C@@H](C)C(=O)[C@H](C)[C@H]2NC(=O)O[C@@]21C [Example 44] | > 100 | ≤ 0.004 | 0.01 (≈ 0.0119 µM) | > 100 | 0.1 (≈ 0.119 µM) | 0.1 (≈ 0.119 µM) | 0.01 (≈ 0.0119 µM) | > 100 | 0.1 (≈ 0.119 µM) | 0.1 (≈ 0.119 µM) | 0.05 (≈ 0.0593 µM) | 0.39 (≈ 0.463 µM) | 0.01 (≈ 0.0119 µM) | 0.1 (≈ 0.119 µM) | 6.2 (≈ 7.35 µM) | 100 (≈ 119 µM) | 2 (≈ 2.37 µM) | 0.2 (≈ 0.237 µM) | 8 (≈ 9.49 µM) | 0.1 (≈ 0.119 µM) | MIC [20]: ≤ 0.004 µg/mL; MIC (Escherichia coli SS): 0.2 µg/mL (≈ 0.237 µM); MIC [21]: 0.05 µg/mL (≈ 0.0593 µM); MIC [22]: 0.1 µg/mL (≈ 0.119 µM); MIC [23]: 0.05 µg/mL (≈ 0.0593 µM); MIC (Escherichia coli DC-2): 50 µg/mL (≈ 59.3 µM) |
| CC[C@H]1OC(=O)[C@H](C)C(=O)[C@H](C)[C@@H](O[C@@H]2O[C@H](C)C[C@H](N(C)C)[C@H]2O)[C@](C)(OC/C=C/c2cncc(-c3ccccn3)c2)C[C@@H](C)C(=O)[C@H](C)[C@H]2NC(=O)O[C@@]21C [Example 43] | > 100 | ≤ 0.004 | 0.02 (≈ 0.0252 µM) | > 100 | 0.2 (≈ 0.252 µM) | 0.1 (≈ 0.126 µM) | 0.02 (≈ 0.0252 µM) | > 100 | 0.2 (≈ 0.252 µM) | 0.05 (≈ 0.0631 µM) | 0.05 (≈ 0.0631 µM) | 0.78 (≈ 0.984 µM) | 0.02 (≈ 0.0252 µM) | 0.1 (≈ 0.126 µM) | 25 (≈ 31.5 µM) | 50 (≈ 63.1 µM) | 2 (≈ 2.52 µM) | 0.2 (≈ 0.252 µM) | 64 (≈ 80.7 µM) | 0.05 (≈ 0.0631 µM) | MIC [20]: ≤ 0.004 µg/mL; MIC (Escherichia coli SS): 0.39 µg/mL (≈ 0.492 µM); MIC [21]: 0.05 µg/mL (≈ 0.0631 µM); MIC [22]: 0.05 µg/mL (≈ 0.0631 µM); MIC [23]: 0.05 µg/mL (≈ 0.0631 µM); MIC (Escherichia coli DC-2): 25 µg/mL (≈ 31.5 µM) |

— patent US6054435A, “6-O-substituted macrolides having antibacterial activity” (priority 1999, dated 2000)
